Test results as given in the supplement of paper PMC10307832.

How the values were obtained:
Experiment in all cases: relative viability (nuclei count vs DMSO), 5 days (fraction); higher = more cells survive
COR-L 105 = system: COR-L 105
Summary of the method: (§1)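 Lung cancer cell lines were pin-tool dosed in 1536-well plates on the day after seeding, with either a lone drug or a fixed anchor-drug dose plus five library-drug doses (not always all listed) in √10 steps. Nuclei were counted on 4× images after 5 days. Relative viability is the ratio of treated-well to vehicle-well nuclei counts, with each value a median of duplicate plates.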

COR-L23 = system: COR-L23
Summary of the method: as §1

EKVX = system: EKVX
Summary of the method: as §1

HARA = system: HARA
Summary of the method: as §1

HCC-15 = system: HCC-15
Summary of the method: as §1

HOP-62 = system: HOP-62
Summary of the method: as §1

NCI-H1355 = system: NCI-H1355
Summary of the method: as §1

NCI-H1395 = system: NCI-H1395
Summary of the method: as §1

NCI-H1734 = system: NCI-H1734
Summary of the method: as §1

NCI-H1755 = system: NCI-H1755
Summary of the method: as §1

NCI-H1793 = system: NCI-H1793
Summary of the method: as §1

NCI-H1993 = system: NCI-H1993
Summary of the method: as §1

NC(=O)Nc1cc(-c2cccc(F)c2)sc1C(=O)N[C@H]1CCCNC1 [AZD7762] + CCNC(=O)c1noc(-c2cc(C(C)C)c(O)cc2O)c1-c1ccc(CN2CCOCC2)cc1 [Luminespib] (partner 0.01 µM) gave a relative viability (COR-L 105; first compound 0.01 µM) of 0.743, a relative viability (COR-L 105; first compound 0.03162 µM) of 0.585 and a relative viability (COR-L 105; first compound 0.1 µM) of 0.696. It also gave a relative viability (COR-L 105; first compound 0.3162 µM) of 0.648, a relative viability (COR-L 105; first compound 1 µM) of 0.401 and a relative viability (COR-L23; first compound 0.01 µM) of 0.687. For the same compound, the relative viability (COR-L23; first compound 0.03162 µM) was 0.653, the relative viability (COR-L23; first compound 0.1 µM) was 0.568 and the relative viability (COR-L23; first compound 0.3162 µM) was 0.216. The relative viability (COR-L23; first compound 1 µM) was 0.117, the relative viability (EKVX; first compound 0.01 µM) was 0.827 and the relative viability (EKVX; first compound 0.03162 µM) was 0.88. The relative viability (EKVX; first compound 0.1 µM) was 0.826, the relative viability (EKVX; first compound 0.3162 µM) was 0.82 and the relative viability (EKVX; first compound 1 µM) was 0.65. For the same compound, the relative viability (HARA; first compound 0.01 µM) was 1.02, the relative viability (HARA; first compound 0.03162 µM) was 0.71 and the relative viability (HARA; first compound 0.1 µM) was 0.604. For the same compound, the relative viability (HARA; first compound 0.3162 µM) was 0.471, the relative viability (HARA; first compound 1 µM) was 0.12 and the relative viability (HCC-15; first compound 0.01 µM) was 0.309. The relative viability (HCC-15; first compound 0.03162 µM) was 0.304, the relative viability (HCC-15; first compound 0.1 µM) was 0.234 and the relative viability (HCC-15; first compound 0.3162 µM) was 0.163. For the same compound, the relative viability (HCC-15; first compound 1 µM) was 0.315, the relative viability (HOP-62; first compound 0.01 µM) was 0.983 and the relative viability (HOP-62; first compound 0.03162 µM) was 0.931. It also gave a relative viability (HOP-62; first compound 0.1 µM) of 0.606, a relative viability (HOP-62; first compound 0.3162 µM) of 0.902 and a relative viability (HOP-62; first compound 1 µM) of 0.65. It also gave a relative viability (NCI-H1355; first compound 0.01 µM) of 0.709, a relative viability (NCI-H1355; first compound 0.03162 µM) of 0.751 and a relative viability (NCI-H1355; first compound 0.1 µM) of 0.812. For the same compound, the relative viability (NCI-H1355; first compound 0.3162 µM) was 0.717, the relative viability (NCI-H1355; first compound 1 µM) was 0.581 and the relative viability (NCI-H1395; first compound 0.01 µM) was 0.699. It also gave a relative viability (NCI-H1395; first compound 0.03162 µM) of 0.788, a relative viability (NCI-H1395; first compound 0.1 µM) of 0.888 and a relative viability (NCI-H1395; first compound 0.3162 µM) of 0.468. It also gave a relative viability (NCI-H1395; first compound 1 µM) of 0.341, a relative viability (NCI-H1734; first compound 0.01 µM) of 0.219 and a relative viability (NCI-H1734; first compound 0.03162 µM) of 0.219. The relative viability (NCI-H1734; first compound 0.1 µM) was 0.146, the relative viability (NCI-H1734; first compound 0.3162 µM) was 0.162 and the relative viability (NCI-H1734; first compound 1 µM) was 0.157. It also gave a relative viability (NCI-H1755; first compound 0.01 µM) of 0.498, a relative viability (NCI-H1755; first compound 0.03162 µM) of 0.344 and a relative viability (NCI-H1755; first compound 0.1 µM) of 0.244. The relative viability (NCI-H1755; first compound 0.3162 µM) was 0.225, the relative viability (NCI-H1755; first compound 1 µM) was 0.275 and the relative viability (NCI-H1793; first compound 0.01 µM) was 0.175. The relative viability (NCI-H1793; first compound 0.03162 µM) was 0.195, the relative viability (NCI-H1793; first compound 0.1 µM) was 0.163 and the relative viability (NCI-H1793; first compound 0.3162 µM) was 0.403. For the same compound, the relative viability (NCI-H1793; first compound 1 µM) was 0.179, the relative viability (NCI-H1993; first compound 0.01 µM) was 1.04 and the relative viability (NCI-H1993; first compound 0.03162 µM) was 0.948.
